From the supplement of paper PMC10307832

Compound: CC1=C(N=C(N=C1N)[C@H](CC(=O)N)NC[C@@H](C(=O)N)N)C(=O)N[C@@H]([C@H](C2=CN=CN2)OC3C(C(C(C(O3)CO)O)O)OC4C(C(C(C(O4)CO)O)OC(=O)N)O)C(=O)N[C@H](C)[C@H]([C@H](C)C(=O)N[C@@H]([C@@H](C)O)C(=O)NCCC5=NC(=CS5)C6=NC(=CS6)C(=O)NCCC[S+](C)C)O [Bleomycin] + CC1(C)CCC(c2ccc(Cl)cc2)=C(CN2CCN(c3ccc(C(=O)NS(=O)(=O)c4ccc(N[C@H](CCN5CCOCC5)CSc5ccccc5)c(S(=O)(=O)C(F)(F)F)c4)cc3)CC2)C1 [Navitoclax] (partner 0.5 µM)
Experiment: relative viability (nuclei count vs DMSO), 5 days (fraction); higher = more cells survive
Settings: first compound 0.01 µM; main component drawn
Method in brief: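 Lung cancer cell lines in 1536-well plates were dosed by pin tool the day after seeding, either with one drug alone or with a fixed anchor-drug dose plus five library-drug doses (not always all listed) in √10 steps. After 5 days, cells were fixed and their nuclei stained in one step (final 0.05% Triton X-100, 1% formaldehyde, 1 ug/ml Hoechst), then counted on 4× images. Relative viability is the nuclei count in treated wells divided by that in vehicle wells. Values are medians of duplicate plates.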

| Cell Line | relative viability |
| --- | --- |
| COR-L 105 | 0.59 |
| LOU-NH91 | 0.553 |
| NCI-H2170 | 0.503 |
| NCI-H3122 | 1.08 |
| HOP-62 | 0.367 |
| LU99A | 0.622 |
| BEN | 0.0606 |
| HARA | 1.1 |
| HCC-78 | 0.463 |
| LCLC-97TM1 | 0.191 |
| NCI-H2009 | 1.16 |
| A-427 | 0.844 |
| NCI-H460 | 0.343 |
| NCI-H1734 | 0.719 |
| NCI-H520 | 0.858 |
| NCI-H2405 | 0.559 |
| SW 1573 | 0.652 |
| NCI-H1395 | 0.829 |
| 201T | 1.17 |
| NCI-H1915 | 0.726 |
| HCC-827 | 0.986 |
| LXF-289 | 0.877 |
| NCI-H2347 | 0.75 |
| CAL-12T | 0.964 |
| NCI-H1651 | 0.944 |
| EPLC-272H | 0.793 |
| NCI-H23 | 0.47 |

Same assay, conditions: first compound 0.03162 µM; main component drawn

| Cell Line | relative viability |
| --- | --- |
| COR-L 105 | 0.884 |
| LOU-NH91 | 0.437 |
| ChaGo-K-1 | 0.914 |
| NCI-H2170 | 0.555 |
| NCI-H3122 | 1.03 |
| HOP-62 | 0.405 |
| LU99A | 0.491 |
| BEN | 0.0742 |
| HARA | 1.08 |
| HCC-78 | 0.439 |
| NCI-H441 | 0.733 |
| LCLC-97TM1 | 0.197 |
| NCI-H2009 | 1.18 |
| A-427 | 0.888 |
| NCI-H460 | 0.465 |
| NCI-H1734 | 0.571 |
| NCI-H520 | 0.957 |
| NCI-H2405 | 0.714 |
| SW 1573 | 0.571 |
| NCI-H1395 | 0.944 |
| 201T | 1.13 |
| NCI-H1915 | 0.78 |
| HCC-827 | 1.06 |
| LXF-289 | 0.879 |
| NCI-H2347 | 0.883 |
| CAL-12T | 0.785 |
| NCI-H1651 | 0.82 |
| EPLC-272H | 0.888 |
| NCI-H23 | 0.284 |

Same assay, conditions: first compound 0.1 µM; main component drawn

| Cell Line | relative viability |
| --- | --- |
| COR-L 105 | 0.716 |
| LOU-NH91 | 0.362 |
| ChaGo-K-1 | 0.724 |
| NCI-H2170 | 0.578 |
| NCI-H3122 | 0.96 |
| HOP-62 | 0.118 |
| LU99A | 0.335 |
| BEN | 0.0676 |
| HARA | 1.02 |
| HCC-78 | 0.387 |
| NCI-H441 | 0.574 |
| LCLC-97TM1 | 0.102 |
| NCI-H2009 | 1.09 |
| A-427 | 0.991 |
| NCI-H460 | 0.0823 |
| NCI-H1734 | 0.518 |
| NCI-H520 | 1.1 |
| NCI-H2405 | 0.499 |
| SW 1573 | 0.515 |
| NCI-H1395 | 0.709 |
| 201T | 1.18 |
| NCI-H1915 | 0.732 |
| HCC-827 | 0.991 |
| LXF-289 | 0.799 |
| NCI-H2347 | 0.663 |
| CAL-12T | 0.551 |
| NCI-H1651 | 0.614 |
| EPLC-272H | 0.826 |
| NCI-H23 | 0.276 |

Same assay, conditions: first compound 0.3162 µM; main component drawn

| Cell Line | relative viability |
| --- | --- |
| COR-L 105 | 0.483 |
| LOU-NH91 | 0.266 |
| ChaGo-K-1 | 0.386 |
| NCI-H2170 | 0.414 |
| NCI-H3122 | 0.79 |
| HOP-62 | 0.0652 |
| LU99A | 0.166 |
| BEN | 0.0599 |
| HARA | 0.747 |
| HCC-78 | 0.326 |
| NCI-H441 | 0.389 |
| LCLC-97TM1 | 0.152 |
| NCI-H2009 | 0.858 |
| A-427 | 0.787 |
| NCI-H460 | 0.0158 |
| NCI-H1734 | 0.24 |
| NCI-H520 | 0.927 |
| NCI-H2405 | 0.196 |
| SW 1573 | 0.201 |
| NCI-H1395 | 0.535 |
| 201T | 1.16 |
| NCI-H1915 | 0.537 |
| HCC-827 | 0.723 |
| LXF-289 | 0.35 |
| NCI-H2347 | 0.259 |
| CAL-12T | 0.228 |
| NCI-H1651 | 0.272 |
| EPLC-272H | 1.29 |
| NCI-H23 | 0.155 |

Same assay, conditions: first compound 1 µM; main component drawn

| Cell Line | relative viability |
| --- | --- |
| COR-L 105 | 0.28 |
| LOU-NH91 | 0.199 |
| ChaGo-K-1 | 0.307 |
| NCI-H2170 | 0.377 |
| NCI-H3122 | 0.547 |
| HOP-62 | 0.0435 |
| LU99A | 0.147 |
| BEN | 0.0555 |
| HARA | 0.601 |
| HCC-78 | 0.278 |
| NCI-H441 | 0.339 |
| LCLC-97TM1 | 0.1 |
| NCI-H2009 | 0.532 |
| A-427 | 0.27 |
| NCI-H460 | 0.0206 |
| NCI-H1734 | 0.139 |
| NCI-H520 | 0.656 |
| NCI-H2405 | 0.199 |
| SW 1573 | 0.104 |
| NCI-H1395 | 0.496 |
| 201T | 1.04 |
| NCI-H1915 | 0.212 |
| HCC-827 | 0.362 |
| LXF-289 | 0.179 |
| NCI-H2347 | 0.402 |
| CAL-12T | 0.201 |
| NCI-H1651 | 0.136 |
| EPLC-272H | 0.159 |
| NCI-H23 | 0.181 |
